Experimental data: patent US20060069132A1, “Azolecarboxamide herbicides” (priority 2004, published 2006)
Where two headings read alike, the source gives them in different places.

Assays:
morningglory = assay: Test A pre-/postemergence herbicide test; assay type: in vivo, Ipomoea spp.; conditions: for pest or weed control at 500 g/ha / pest or weed control at 2000 g/ha: Ipomoea, 240 h
Summary of the method: (§1)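 Pre: seeded sandy loam, directed soil spray, compound in non-phytotoxic solvent + surfactant. Post: 1–2-leaf plants (2–10 cm), sprayed to runoff. Greenhouse ~10 d; visual injury vs untreated, 0–100 scale.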

velvetleaf = assay: Test A pre-/postemergence herbicide test; assay type: in vivo, Abutilon theophrasti; conditions: for pest or weed control at 500 g/ha / pest or weed control at 2000 g/ha: Abutilon theophrasti, 240 h
Summary of the method: as §1

giant foxtail = assay: Test C pre-/postemergence herbicide test; assay type: in vivo, Setaria faberi
From the text: (§2) Seeds of plant species selected from bermudagrass (Cynodon dactylon (L.) Pers.), Surinam grass (Urochloa decumbens (Staph) R. D. Webster, previously named Brachiaria decumbens Stapf), cocklebur (Xanthium strumarium L.), corn (Zea mays L.), large crabgrass (Digitaria sanguinalis (L.) Scop.), woolly cupgrass (Eriochloa villosa (Thunb.) Kunth), giant foxtail (Setaria faberi Herrm.), goosegrass (Eleusine indica (L.) Gaertn.), johnsongrass (Sorghum halepense (L.) Pers.), kochia (Kochia scoparia (L.) Schrad.), lambsquarters (Chenopodium album L.), morningglory (Ipomoea coccinea L.), eastern black nightshade (Solanum ptycanthum Dunal), yellow nutsedge (Cyperus esculentus L.), pigweed (Amaranthus retroflexus L.), common ragweed (Ambrosia elatior L.), soybean (Glycine max (L.) Merr.), common (oilseed) sunflower (Helianthus annuus L.) and velvetleaf (Abutilon theophrasti Medik.) were planted and treated preemergence with test chemicals formulated in a non-phytotoxic solvent mixture which included a surfactant.
(§3) At the same time, plants selected from these crop and weed species and also winter barley (Hordeum vulgare L.), blackgrass (Alopecurus myosuroides Huds.), canarygrass (Phalaris minor Retz.), chickweed (Stellaria media (L.) Vill.), downy bromegrass (Bromus tectorum L.), green foxtail (Setaria viridis (L.) Beauv.), Italian ryegrass (Lolium multiflorum Lam.), wheat (Triticum aestivum L.), wild oat (Avenafatua L.) and windgrass (Apera spica-venti (L.) Beauv.) were treated with postemergence applications of some of the test chemicals formulated in the same manner. Plants ranged in height from 2 to 18 cm (1- to 4-leaf stage) for postemergence treatments. Plant species in the flooded paddy test consisted of rice (Oryza sativa), smallflower umbrella sedge (Cyperus difformis L.), ducksalad (Heteranthera limosa (Sw.) Willd.) and barnyardgrass (Echinochloa crus-galli (L.) Beauv.) grown to the 2-leaf stage for testing. Treated plants and controls were maintained in a greenhouse for 12 to 14 days, after which time all species were compared to controls and visually evaluated. Plant response ratings, summarized in Table C, are based on a scale of 0 to 100 where 0 is no effect and 100 is complete control. A dash (-) response means no test result.

common ragweed = assay: Test C pre-/postemergence herbicide test; assay type: in vivo, Ambrosia elatior; design: key to Plant response rating, Ragweed: 0 = no effect, 100 = complete control
From the text: as §2, §3

rice [1] = assay: Test C flooded paddy test; assay type: in vivo, Oryza sativa; conditions: for Plant response rating, Rice / plant injury at 500 g/ha: 500 g ai/ha, visual rating after 12 to 14 days; for plant injury at 62 g/ha / plant injury at 125 g/ha / plant injury at 250 g/ha / plant injury at 500 g/ha: Oryza sativa; for plant injury at 62 g/ha / plant injury at 125 g/ha / plant injury at 250 g/ha: read-out: Rice plant response rating; for plant injury at 500 g/ha: read-out: Plant response rating, Rice
Summary of the method: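 Injury scored visually against controls on a 0 (no effect) to 100 (complete control) scale, 12 to 14 days after treatment in greenhouse. Flooded paddy plants treated at 2-leaf stage; postemergence plants at 1- to 4-leaf stage, 2 to 18 cm tall.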

barnyardgrass = assay: Test C flooded paddy test; assay type: in vivo, Echinochloa crus-galli; conditions: for Plant response rating, Barnyardgrass / pest or weed control at 500 g/ha: 500 g ai/ha, visual rating after 12 to 14 days; for pest or weed control at 62 g/ha / pest or weed control at 125 g/ha / pest or weed control at 250 g/ha / pest or weed control at 500 g/ha: Echinochloa crus-galli; for pest or weed control at 62 g/ha / pest or weed control at 125 g/ha / pest or weed control at 250 g/ha: read-out: Barnyardgrass plant response rating; for pest or weed control at 500 g/ha: read-out: Plant response rating, Barnyardgrass
Summary of the method: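 Postemergence sprays applied to plants 2 to 18 cm tall (1- to 4-leaf stage); paddy species grown to 2-leaf stage under flooding. After 12 to 14 days in greenhouse, visual rating versus untreated controls on 0–100 scale (0 no effect, 100 complete control).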

rice [2] = assay: Test B pre-/postemergence herbicide test; assay type: in vivo, Oryza sativa; conditions: for plant injury at 500 g/ha / plant injury at 125 g/ha: Oryza sativa, pre-emergence, 336 h; for plant injury at 500 g/ha / Plant response rating, Rice: 500 g ai/ha
Summary of the method: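 Response was scored visually 13 to 15 days after treatment against untreated greenhouse controls, 0 meaning no effect and 100 complete control. Formulations (solvent mixture plus surfactant) went onto soil after planting, onto foliage of 1- to 4-leaf plants, and onto 2-leaf plants in a flooded paddy set including rice and barnyardgrass.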

[3] = Postemergence, 500 g ai/ha, 0 to 100 scale, 0 no effect, 100 complete control
[4] = Postemergence, 2000 g ai/ha, 0 to 100 scale, 0 no effect, 100 complete control
[5] = Preemergence, 500 g ai/ha, visual rating, 0 to 100 scale (0 no effect, 100 complete control)
[6] = Preemergence, 2000 g ai/ha, visual rating, 0 to 100 scale (0 no effect, 100 complete control)
[7] = Postemergence, 500 g ai/ha, scale 0 to 100
[8] = Postemergence, 250 g ai/ha, scale 0 to 100, 0 no effect, 100 complete control
[9] = postemergence, 125 g ai/ha, scale 0 to 100
[10] = postemergence, 62 g ai/ha, scale 0 to 100
[11] = 62 g ai/ha, scale 0 to 100 (0 no effect, 100 complete control)
[12] = 125 g ai/ha, scale of 0 to 100, 0 is no effect, 100 is complete control
[13] = 250 g ai/ha, scale of 0 to 100, 0 is no effect, 100 is complete control
[14] = scale 0 to 100 (0 no effect, 100 complete control)
[15] = post-emergence, Postemergence, 500 g ai/ha, 0 to 100 scale, 0 no effect, 100 complete control, read-out: Morningglory plant response rating
[16] = post-emergence, Postemergence, 2000 g ai/ha, 0 to 100 scale, 0 no effect, 100 complete control, read-out: Plant response rating, Morningglory
[17] = pre-emergence, Preemergence, 2000 g ai/ha, visual rating, 0 to 100 scale (0 no effect, 100 complete control), read-out: Morningglory plant response rating
[18] = post-emergence, Postemergence, 500 g ai/ha, 0 to 100 scale, 0 no effect, 100 complete control, read-out: Velvetleaf plant response rating
[19] = post-emergence, Postemergence, 2000 g ai/ha, 0 to 100 scale, 0 no effect, 100 complete control, read-out: Plant response rating, Velvetleaf
[20] = pre-emergence, Preemergence, 2000 g ai/ha, visual rating, 0 to 100 scale (0 no effect, 100 complete control), read-out: Velvetleaf plant response rating
[21] = pre-emergence, preemergence, 500 g ai/ha, visual injury, 0 to 100 scale (0 no effect, 100 complete control), read-out: Velvetleaf plant response rating
[22] = 125 g ai/ha, 0 = no effect, 100 = complete control, read-out: Rice plant response rating (0 to 100 scale)
[23] = visual rating, 0 = no effect, 100 = complete control, read-out: Plant response rating, Rice
[24] = 125 g ai/ha, scale 0 to 100 (0 no effect, 100 complete control)
[25] = visual rating, 0 = no effect, 100 = complete control, preemergence

CC(=NO)c1cccc(NC(=O)c2cc(C(C)(C)C)nn2CC(F)(F)F)c1 [Compound 112]
Morningglory plant response rating (morningglory; [3]): 20 | Plant response rating, Morningglory (morningglory; [4]): 15 | Morningglory plant response rating (morningglory; [5]): 20 | Morningglory plant response rating (morningglory; [6]): 45 | Velvetleaf plant response rating (velvetleaf; [3]): 25 | Plant response rating, Velvetleaf (velvetleaf; [4]): 35 | Velvetleaf plant response rating (velvetleaf; [5]): 25 | Velvetleaf plant response rating (velvetleaf; [6]): 50 | Foxtail, Giant plant response rating (giant foxtail; [7]): 50 | Plant response rating, Foxtail, Giant (giant foxtail; [8]): 50 | Plant response rating, Foxtail, Giant (giant foxtail; [9]): 50 | Plant response rating, Foxtail, Giant (giant foxtail; [10]): 30 | Ragweed plant response rating (common ragweed; [7]): 70 | Plant response rating, Ragweed (common ragweed; [8]): 70 | Plant response rating, Ragweed (common ragweed; [9]): 0 | Plant response rating, Ragweed (common ragweed; [10]): 0 | Rice plant response rating (rice [1]; [11]): 0 | Rice plant response rating (rice [1]; [12]): 0 | Rice plant response rating (rice [1]; [13]): 10 | Plant response rating, Rice (rice [1]; [14]): 30 | Barnyardgrass plant response rating (barnyardgrass; [11]): 0 | Barnyardgrass plant response rating (barnyardgrass; [12]): 0 | Barnyardgrass plant response rating (barnyardgrass; [13]): 10 | Plant response rating, Barnyardgrass (barnyardgrass; [14]): 30

CCn1nc(C(C)(C)C)cc1C(=O)Nc1cc(C(=O)OC)ccn1 [Compound 151, methyl 2-[[[3-(1,1-dimethylethyl)-1-ethyl-1H-pyrazol-5-yl]carbonyl]amino]-4-pyridinecarboxylate]
pest or weed control at 500 g/ha (morningglory; [15]): 10% | pest or weed control at 2000 g/ha (morningglory; [16]): 20% | pest or weed control at 500 g/ha (morningglory; pre-emergence, Preemergence, 500 g ai/ha, visual rating, 0 to 100 scale (0 no effect, 100 complete control), read-out: Morningglory plant response rating): 0% | pest or weed control at 2000 g/ha (morningglory; [17]): 0% | pest or weed control at 500 g/ha (velvetleaf; [18]): 35% | pest or weed control at 2000 g/ha (velvetleaf; [19]): 60% | pest or weed control at 2000 g/ha (velvetleaf; [20]): 10% | pest or weed control at 500 g/ha (velvetleaf; [21]): 0% | plant injury at 500 g/ha (rice [2]; visual rating 0-100, 0 no effect, 100 complete control, read-out: Plant response rating, Rice): 0% | plant injury at 125 g/ha (rice [2]; preemergence, 125 g ai/ha, 0 to 100 scale, 0 is no effect, 100 is complete control, read-out: Plant response rating, Rice): 0%

CCn1nc(C(C)(C)C)cc1C(=O)Nc1ccc(F)c(C(=O)N(C)C)c1 [Compound 236, N-[3-[(dimethylamino)carbonyl]-4-fluorophenyl]-3-(1,1-dimethylethyl)-1-ethyl-1H-pyrazole-5-carboxamide]
plant injury at 125 g/ha (rice [2]; [22]): 40% | plant injury at 500 g/ha (rice [2]; [23]): 60% | plant injury at 62 g/ha (rice [1]; [11]): 0% | plant injury at 125 g/ha (rice [1]; [24]): 30% | plant injury at 250 g/ha (rice [1]; [13]): 60% | plant injury at 500 g/ha (rice [1]; [14]): 70% | pest or weed control at 62 g/ha (barnyardgrass; [11]): 0% | pest or weed control at 125 g/ha (barnyardgrass; [24]): 0% | pest or weed control at 250 g/ha (barnyardgrass; [13]): 15% | pest or weed control at 500 g/ha (barnyardgrass; [14]): 40%

CCNC(=O)c1cc(NC(=O)c2cn(C(C)(C)C)nc2CC)ccc1F [Compound 241, 1-(1,1-dimethylethyl)-3-ethyl-N-[3-[(ethylamino)carbonyl]-4-fluorophenyl]-1H-pyrazole-4-carboxamide]
plant injury at 125 g/ha (rice [2]; [22]): 0% | plant injury at 500 g/ha (rice [2]; [23]): 80% | plant injury at 62 g/ha (rice [1]; [11]): 0% | plant injury at 125 g/ha (rice [1]; [24]): 0% | plant injury at 250 g/ha (rice [1]; [13]): 30% | plant injury at 500 g/ha (rice [1]; [14]): 65% | pest or weed control at 62 g/ha (barnyardgrass; [11]): 0% | pest or weed control at 125 g/ha (barnyardgrass; [24]): 0% | pest or weed control at 250 g/ha (barnyardgrass; [13]): 0% | pest or weed control at 500 g/ha (barnyardgrass; [14]): 30%

CCn1nc(C(C)(C)C)cc1C(=O)Nc1cc(C(=O)OC(C)C)c(F)cc1F [Compound 248]
Rice plant response rating (0 to 100 scale) (rice [2]; 125 g ai/ha, 0 = no effect, 100 = complete control, preemergence): 0 | Plant response rating, Rice (rice [2]; [25]): 0

CCOC(=O)c1ccc(F)c(NC(=O)C2CC(C(C)(C)C)=NN2CC)c1 (stereo not drawn) [Compound 267, ethyl 3-[[[3-(1,1-dimethylethyl)-1-ethyl-4,5-dihydro-1H-pyrazol-5-yl]carbonyl]amino]-4-fluorobenzoate]
pest or weed control at 500 g/ha (morningglory; [15]): 30% | pest or weed control at 2000 g/ha (morningglory; [16]): 45% | pest or weed control at 2000 g/ha (morningglory; [17]): 45% | pest or weed control at 500 g/ha (morningglory; pre-emergence, preemergence, 500 g ai/ha, visual injury, 0 to 100 scale (0 no effect, 100 complete control), read-out: Morningglory plant response rating): 20% | pest or weed control at 500 g/ha (velvetleaf; [18]): 30% | pest or weed control at 2000 g/ha (velvetleaf; [19]): 35% | pest or weed control at 2000 g/ha (velvetleaf; [20]): 60% | pest or weed control at 500 g/ha (velvetleaf; [21]): 25% | plant injury at 125 g/ha (rice [2]; [22]): 20% | plant injury at 500 g/ha (rice [2]; [23]): 40%

CCOC(=O)c1ccc(F)c(NC(=O)c2cc(C3(C)CC3)nn2CC)c1 [Compound 296]
Plant response rating, Rice (rice [2]; [25]): 40 | Rice plant response rating (rice [1]; 62 g ai/ha, scale 0 to 100): 20 | Rice plant response rating (rice [1]; [24]): 20 | Rice plant response rating (rice [1]; [13]): 40 | Plant response rating, Rice (rice [1]; [14]): 60 | Barnyardgrass plant response rating (barnyardgrass; [11]): 15 | Barnyardgrass plant response rating (barnyardgrass; [24]): 25 | Barnyardgrass plant response rating (barnyardgrass; [13]): 50 | Plant response rating, Barnyardgrass (barnyardgrass; [14]): 65
